Reference: patent publication US20050096311A1, “Compositions and methods for treatment of nervous system disorders” (CNS Response, priority 2003, published 2005)

Legend:
[1] = biological target: norepinephrine uptake (Homo sapiens, UniProt P23975); conditions: cited from earlier work
[2] = test system: pain of migraine; conditions: oral or intrapulmonary administration; cited from earlier work
[3] = test system: Parkinson's disease symptoms; conditions: cited from earlier work
[4] = cited from earlier work
[5] = cited from earlier work; remark: listed apart in the source
[6] = test system: nervous system disorder symptoms in affected patients; assay: Randomized double-blind study in naive patients presenting at least one symptom of a nervous system disorder (Example 1); assay type: in vivo
Text: The design of this study is a randomized double-blind protocol in which a first set of clinicians diagnosed a group of naive (i.e., previously untreated) patients presenting at least one symptom of a nervous system disorder.
A second set of clinicians will monitor the compliance of each patient and assess the presence or absence of at least one symptom of a nervous system disorder on a weekly basis throughout the treatment period. At the termination of the study a third set of clinicians will evaluate the data and document the results.
Relative to Group I, all treatment groups are expected to reduce at least one symptom of a nervous system disorder except Group IV.

[7] = biphasic elimination; cited from earlier work
[8] = formulated as a hydrochloride salt; cited from earlier work
[9] = biological target: dopamine uptake (Homo sapiens, UniProt Q01959); conditions: cited from earlier work
[10] = test system: migraine attacks; conditions: given prophylactically; cited from earlier work

Sequence of norepinephrine uptake (P23975 whole entry): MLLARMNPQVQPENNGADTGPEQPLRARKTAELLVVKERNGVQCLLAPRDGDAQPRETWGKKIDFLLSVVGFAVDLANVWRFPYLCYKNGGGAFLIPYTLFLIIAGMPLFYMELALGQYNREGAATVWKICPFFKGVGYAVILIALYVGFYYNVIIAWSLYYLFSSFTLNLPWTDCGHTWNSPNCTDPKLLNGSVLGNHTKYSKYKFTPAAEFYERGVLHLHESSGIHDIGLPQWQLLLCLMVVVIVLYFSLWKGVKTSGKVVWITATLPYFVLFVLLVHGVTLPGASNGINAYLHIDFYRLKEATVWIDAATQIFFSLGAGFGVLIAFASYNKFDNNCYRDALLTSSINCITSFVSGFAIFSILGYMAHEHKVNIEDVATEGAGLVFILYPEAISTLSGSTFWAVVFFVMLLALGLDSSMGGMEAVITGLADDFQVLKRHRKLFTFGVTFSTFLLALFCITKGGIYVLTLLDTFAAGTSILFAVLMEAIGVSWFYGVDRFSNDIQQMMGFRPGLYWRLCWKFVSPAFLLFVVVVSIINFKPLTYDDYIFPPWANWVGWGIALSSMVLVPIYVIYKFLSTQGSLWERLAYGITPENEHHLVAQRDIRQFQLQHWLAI
Sequence of dopamine uptake (Q01959 whole entry): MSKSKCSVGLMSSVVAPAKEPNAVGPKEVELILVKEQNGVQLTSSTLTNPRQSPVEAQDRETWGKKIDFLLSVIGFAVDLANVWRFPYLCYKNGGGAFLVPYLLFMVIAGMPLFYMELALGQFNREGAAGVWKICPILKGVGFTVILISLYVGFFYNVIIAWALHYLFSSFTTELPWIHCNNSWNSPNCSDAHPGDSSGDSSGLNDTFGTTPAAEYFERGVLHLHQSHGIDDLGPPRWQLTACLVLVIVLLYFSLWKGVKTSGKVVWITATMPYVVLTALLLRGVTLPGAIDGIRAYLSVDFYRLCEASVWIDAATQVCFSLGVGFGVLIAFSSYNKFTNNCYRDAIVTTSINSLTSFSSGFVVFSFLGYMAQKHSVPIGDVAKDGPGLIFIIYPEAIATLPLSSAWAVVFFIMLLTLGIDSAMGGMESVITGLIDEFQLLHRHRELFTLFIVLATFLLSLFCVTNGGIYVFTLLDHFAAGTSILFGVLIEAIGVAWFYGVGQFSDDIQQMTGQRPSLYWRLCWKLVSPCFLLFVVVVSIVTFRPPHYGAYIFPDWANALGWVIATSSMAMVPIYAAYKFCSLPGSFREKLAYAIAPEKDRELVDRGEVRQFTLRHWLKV

For C[C@@H]1NC(C)(C)CO[C@@]1(O)c1cccc(Cl)c1 [(S,S)-hydroxybupropion], which “inhibition of norepinephrine uptake” value [1] is on record?
The value was “effective inhibitor of only norepinephrine uptake”.

With CN1C[C@H](C(=O)N[C@]2(C)O[C@@]3(O)[C@@H]4CCCN4C(=O)[C@H](Cc4ccccc4)N3C2=O)C=C2c3cccc4[nH]cc(c34)C[C@H]21 [Ergotamine] as the compound, how does the “time to pain relief” value [2] read?
The value was 5 h.

For N[C@@H](Cc1ccc(O)c(O)c1)C(=O)O [Levodopa, L-3,4-dihydroxyphenylalanine], which reduction in symptomology ([3]; Parkinson's disease patients) is on record?
The reduction in symptomology was 50%.

What about the “treated patients showing the reduction in symptomology” value ([3]; Parkinson's disease patients) of the same compound?
The value was 75%.

For NC(=O)N1c2ccccc2CC(O)c2ccccc21 (stereo not shown) [MHD, 10, 11-dihydro-10-OH-carbazepine], which “increase in the non-protein bound plasma MHD concentration” value ([4]; co-administration of oxcarbazepine and vilooxazoine) is on record?
The value was 11%.

What about the plasma protein binding ([5]; distribution between blood cell compartments) of the same compound?
The plasma protein binding was “low level of plasma protein binding”.

What about the “mean non-protein bound MHD fraction” value ([5]; epileptic patients) of the same compound?
Its value is “approximately 56.7 +/−5.5%”.

With CC(NC(C)(C)C)C(=O)c1cccc(Cl)c1 (stereo not drawn) [bupropion, m-chloro-α-(t-butylamino)propiophenone] as the compound, how does the “Percent Reduction In Nervous System Disorder Symptoms In Affected Patients” value ([6]; Symptom EIGHT) read?
Its value is 25 ± 2.5%.

And the “Percent Reduction In Nervous System Disorder Symptoms In Affected Patients” value ([6]; Symptom FIVE)?
Its value is 25 ± 2.5%.

What about the “Percent Reduction In Nervous System Disorder Symptoms In Affected Patients” value ([6]; Symptom FOUR) of the same compound?
Its value is 25 ± 2.5%.

And the “Percent Reduction In Nervous System Disorder Symptoms In Affected Patients” value ([6]; Symptom ONE)?
Its value is 25 ± 2.5%.

What about the “Percent Reduction In Nervous System Disorder Symptoms In Affected Patients” value ([6]; Symptom SEVEN) of the same compound?
The value was 25 ± 2.5%.

And the “Percent Reduction In Nervous System Disorder Symptoms In Affected Patients” value ([6]; Symptom SIX)?
Its value is 25 ± 2.5%.

And the “Percent Reduction In Nervous System Disorder Symptoms In Affected Patients” value ([6]; Symptom THREE)?
The value was 25 ± 2.5%.

What about the “Percent Reduction In Nervous System Disorder Symptoms In Affected Patients” value ([6]; Symptom TWO) of the same compound?
The value was 25 ± 2.5%.

And the elimination half-life [7]?
The elimination half-life was 11 to 14 h.

What about the redistribution half-life [7] of the same compound?
The redistribution half-life was “about one”.

And the solubility [8]?
The solubility was “water-soluble”.

For C[C@@](Cc1ccc(O)c(O)c1)(NN)C(=O)O [carbidopa], which “reduction of the dose of levodopa” value ([3]; concurrent administration of carbidopa) is on record?
Its value is at most 75%.

Which “inhibition of norepinephrine uptake” value [1] does the source give for C[C@H]1NC(C)(C)CO[C@]1(O)c1cccc(Cl)c1 [hydroxybupropion] here?
The value was “effective inhibitor”.

What about the “inhibition of dopamine uptake” value [9] of the same compound?
Its value is “effective inhibitor”.

Which “Percent Reduction In Nervous System Disorder Symptoms In Affected Patients” value ([6]; Symptom EIGHT) does the source give for NC(=O)N1c2ccccc2CC(=O)c2ccccc21 [oxcarbazepine] here?
Its value is 10 ± 1%.

And the “Percent Reduction In Nervous System Disorder Symptoms In Affected Patients” value ([6]; Symptom FIVE)?
The value was 10 ± 1%.

What about the “Percent Reduction In Nervous System Disorder Symptoms In Affected Patients” value ([6]; Symptom FOUR) of the same compound?
The value was 10 ± 1%.

What about the “Percent Reduction In Nervous System Disorder Symptoms In Affected Patients” value ([6]; Symptom ONE) of the same compound?
Its value is 10 ± 1%.

And the “Percent Reduction In Nervous System Disorder Symptoms In Affected Patients” value ([6]; Symptom SEVEN)?
The value was 10 ± 1%.

And the “Percent Reduction In Nervous System Disorder Symptoms In Affected Patients” value ([6]; Symptom SIX)?
Its value is 10 ± 1%.

What about the “Percent Reduction In Nervous System Disorder Symptoms In Affected Patients” value ([6]; Symptom THREE) of the same compound?
The value was 10 ± 1%.

What about the “Percent Reduction In Nervous System Disorder Symptoms In Affected Patients” value ([6]; Symptom TWO) of the same compound?
The value was 10 ± 1%.

What about the plasma half-life ([4]; 600 mg oxcarbazepine dose) of the same compound?
The plasma half-life was “approximately 19.3±6.2 hours”.

Which “patients with reduced frequency and intensity of migraine attacks” value [10] does the source give for CC(C)NCC(O)COc1cccc2ccccc12 (stereo not shown) [propranolol] here?
Its value is 70%.
